Assay results taken from PubChem BioAssay (NCI).
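The compound was tested at five concentrations on cells cultured in 96-well plates, with a 48-hour exposure period. GI50 is the concentration that inhibits growth by half. TGI: total growth inhibition.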

What was measured:
Test in all cases: NCI anticancer screen, dose series, 48 h
BT-549 breast = test system: BT-549 breast
HCT-15 colon = test system: HCT-15 colon
K-562 leukemia = test system: K-562 leukemia
SN12C renal = test system: SN12C renal
M14 melanoma = test system: M14 melanoma
U251 CNS = test system: U251 CNS
HCC-2998 colon = test system: HCC-2998 colon
NCI-H522 lung = test system: NCI-H522 lung
HCT-116 colon = test system: HCT-116 colon
SNB-19 CNS = test system: SNB-19 CNS
UACC-257 melanoma = test system: UACC-257 melanoma
SNB-75 CNS = test system: SNB-75 CNS
CCRF-CEM leukemia = test system: CCRF-CEM leukemia
HL-60(TB) leukemia = test system: HL-60(TB) leukemia
SF-268 CNS = test system: SF-268 CNS
A549 NSCLC = test system: A549 NSCLC
OVCAR-8 ovarian = test system: OVCAR-8 ovarian
OVCAR-5 ovarian = test system: OVCAR-5 ovarian
SW-620 colon = test system: SW-620 colon
HT29 colon = test system: HT29 colon
SF-295 CNS = test system: SF-295 CNS
786-0 renal = test system: 786-0 renal
T-47D breast = test system: T-47D breast
HOP-62 NSCLC = test system: HOP-62 NSCLC
SK-OV-3 ovarian = test system: SK-OV-3 ovarian
NCI-H23 lung = test system: NCI-H23 lung
SK-MEL-2 melanoma = test system: SK-MEL-2 melanoma
KM12 colon = test system: KM12 colon
SF-539 CNS = test system: SF-539 CNS
TK-10 renal = test system: TK-10 renal
LOX IMVI melanoma = test system: LOX IMVI melanoma
PC-3 prostate = test system: PC-3 prostate
OVCAR-3 ovarian = test system: OVCAR-3 ovarian
SK-MEL-28 melanoma = test system: SK-MEL-28 melanoma
UACC-62 melanoma = test system: UACC-62 melanoma
UO-31 renal = test system: UO-31 renal
COLO 205 colon = test system: COLO 205 colon
EKVX NSCLC = test system: EKVX NSCLC
RPMI-8226 leukemia = test system: RPMI-8226 leukemia
MOLT-4 leukemia = test system: MOLT-4 leukemia
MDA-MB-231 breast = test system: MDA-MB-231 breast
NCI-H460 lung = test system: NCI-H460 lung
MALME-3M melanoma = test system: MALME-3M melanoma
DU-145 prostate = test system: DU-145 prostate
RXF 393 renal = test system: RXF 393 renal
IGROV1 ovarian = test system: IGROV1 ovarian
OVCAR-4 ovarian = test system: OVCAR-4 ovarian
NCI/ADR-RES ovarian = test system: NCI/ADR-RES ovarian
SK-MEL-5 melanoma = test system: SK-MEL-5 melanoma
HOP-92 NSCLC = test system: HOP-92 NSCLC
NCI-H226 lung = test system: NCI-H226 lung
MCF7 breast = test system: MCF7 breast
ACHN renal = test system: ACHN renal
CAKI-1 renal = test system: CAKI-1 renal

COc1ccc(-c2c(C#N)c(N)nc3c2CCCc2ccc(F)cc2-3)cc1OC
GI50 (BT-549 breast): 556 nM
TGI (BT-549 breast): 26200 nM
GI50 (HCT-15 colon): < 49.7 nM
TGI (HCT-15 colon): 504 nM
GI50 (K-562 leukemia): < 10 nM
TGI (K-562 leukemia): > 100000 nM
GI50 (SN12C renal): < 49.9 nM
TGI (SN12C renal): 4750 nM
GI50 (M14 melanoma): 75.8 nM
TGI (M14 melanoma): 402 nM
GI50 (U251 CNS): < 50.1 nM
GI50 (HCC-2998 colon): 354 nM
TGI (HCC-2998 colon): 14400 nM
GI50 (NCI-H522 lung): < 10 nM
TGI (NCI-H522 lung): 33500 nM
GI50 (HCT-116 colon): 187 nM
TGI (HCT-116 colon): 11000 nM
GI50 (SNB-19 CNS): 20700 nM
TGI (SNB-19 CNS): > 92100 nM
TGI (UACC-257 melanoma): > 78500 nM
GI50 (SNB-75 CNS): 1360 nM
TGI (SNB-75 CNS): > 100000 nM
GI50 (CCRF-CEM leukemia): < 10.5 nM
TGI (CCRF-CEM leukemia): > 92800 nM
GI50 (HL-60(TB) leukemia): < 10 nM
TGI (HL-60(TB) leukemia): > 100000 nM
GI50 (SF-268 CNS): 33.5 nM
TGI (SF-268 CNS): > 100000 nM
GI50 (A549 NSCLC): 174 nM
TGI (A549 NSCLC): > 54000 nM
GI50 (OVCAR-8 ovarian): 419 nM
TGI (OVCAR-8 ovarian): > 100000 nM
GI50 (OVCAR-5 ovarian): 8970 nM
TGI (OVCAR-5 ovarian): > 100000 nM
TGI (SW-620 colon): > 38800 nM
GI50 (HT29 colon): 1070 nM
TGI (HT29 colon): > 41300 nM
GI50 (SF-295 CNS): < 10 nM
GI50 (786-0 renal): 96.4 nM
TGI (786-0 renal): 30300 nM
GI50 (T-47D breast): 22300 nM
TGI (T-47D breast): > 100000 nM
GI50 (HOP-62 NSCLC): 131 nM
TGI (HOP-62 NSCLC): 29700 nM
GI50 (SK-OV-3 ovarian): 4270 nM
TGI (SK-OV-3 ovarian): > 92300 nM
GI50 (NCI-H23 lung): 487 nM
TGI (NCI-H23 lung): > 100000 nM
GI50 (SK-MEL-2 melanoma): < 10 nM
TGI (SK-MEL-2 melanoma): > 100000 nM
GI50 (KM12 colon): < 10 nM
TGI (KM12 colon): 2580 nM
GI50 (SF-539 CNS): < 10 nM
TGI (SF-539 CNS): 21.3 nM
GI50 (TK-10 renal): < 16.3 nM
TGI (TK-10 renal): 1700 nM
GI50 (LOX IMVI melanoma): < 42.2 nM
TGI (LOX IMVI melanoma): 19600 nM
GI50 (PC-3 prostate): < 18.5 nM
GI50 (OVCAR-3 ovarian): < 10 nM
GI50 (SK-MEL-28 melanoma): 1030 nM
TGI (SK-MEL-28 melanoma): > 38000 nM
GI50 (UACC-62 melanoma): < 16.9 nM
GI50 (UO-31 renal): 148 nM
TGI (UO-31 renal): > 100000 nM
GI50 (COLO 205 colon): 4890 nM
TGI (COLO 205 colon): > 38100 nM
GI50 (EKVX NSCLC): 86.1 nM
GI50 (RPMI-8226 leukemia): < 10 nM
TGI (RPMI-8226 leukemia): 1610 nM
GI50 (MOLT-4 leukemia): < 10 nM
TGI (MOLT-4 leukemia): > 100000 nM
GI50 (MDA-MB-231 breast): < 39.9 nM
TGI (MDA-MB-231 breast): 758 nM
GI50 (NCI-H460 lung): 16.3 nM
TGI (NCI-H460 lung): > 52600 nM
GI50 (MALME-3M melanoma): < 10 nM
GI50 (DU-145 prostate): 16.4 nM
TGI (DU-145 prostate): 15700 nM
GI50 (RXF 393 renal): 58.6 nM
TGI (RXF 393 renal): > 82900 nM
GI50 (IGROV1 ovarian): 131 nM
TGI (IGROV1 ovarian): > 100000 nM
GI50 (OVCAR-4 ovarian): 1280 nM
TGI (OVCAR-4 ovarian): > 29900 nM
GI50 (NCI/ADR-RES ovarian): 480 nM
TGI (NCI/ADR-RES ovarian): > 100000 nM
TGI (SK-MEL-5 melanoma): 483 nM
GI50 (HOP-92 NSCLC): 4730 nM
TGI (HOP-92 NSCLC): > 100000 nM
GI50 (NCI-H226 lung): < 10 nM
TGI (NCI-H226 lung): > 100000 nM
GI50 (MCF7 breast): < 10 nM
TGI (MCF7 breast): > 100000 nM
TGI (ACHN renal): 19400 nM
GI50 (CAKI-1 renal): 24.1 nM
TGI (CAKI-1 renal): 35100 nM
